target: T1, Recombinant human α-L-iduronidase protein (Homo sapiens, UniProt P35475); test: Differential scanning fluorimetry (DSF) thermal stabilization; format: binding; settings: commercially available Examples 8-37; ΔTm class;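 note: Classes count stabilization of α-L-iduronidase despite the GALC label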
T1 construct: purchased R&D
T1 sequence (P35475 28-653): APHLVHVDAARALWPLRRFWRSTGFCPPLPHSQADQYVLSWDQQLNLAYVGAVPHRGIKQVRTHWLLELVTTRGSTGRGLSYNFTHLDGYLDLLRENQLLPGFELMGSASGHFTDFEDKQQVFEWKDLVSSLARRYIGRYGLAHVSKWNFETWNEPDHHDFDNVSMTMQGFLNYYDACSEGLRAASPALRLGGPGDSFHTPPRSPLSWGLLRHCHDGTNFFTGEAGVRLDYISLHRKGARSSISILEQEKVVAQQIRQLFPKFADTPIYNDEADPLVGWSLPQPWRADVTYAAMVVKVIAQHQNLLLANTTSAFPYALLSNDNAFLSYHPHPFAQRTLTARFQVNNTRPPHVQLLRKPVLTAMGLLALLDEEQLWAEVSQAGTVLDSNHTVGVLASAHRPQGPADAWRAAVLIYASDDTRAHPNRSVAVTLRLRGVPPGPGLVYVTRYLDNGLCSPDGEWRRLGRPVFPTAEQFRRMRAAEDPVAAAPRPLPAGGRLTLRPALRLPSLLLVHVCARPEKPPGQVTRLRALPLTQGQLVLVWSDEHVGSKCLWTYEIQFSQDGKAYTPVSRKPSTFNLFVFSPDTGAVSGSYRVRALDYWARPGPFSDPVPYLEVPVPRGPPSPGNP
Procedure: The capacity of Compounds of the Disclosure to stabilize α-L-iduronidase was assessed by differential scanning fluorimetry technique. The thermal denaturation of purified human native enzyme was monitored in the presence of the extrinsic fluorescent probe SYPRO Orange (Sigma-Aldrich, St. Louis, MO). The tested compounds were dissolved in 100% DMSO and diluted into the protein buffer to achieve final concentrations of 1% DMSO.
Recombinant human α-L-iduronidase protein (purchased from R&D) 12.5 µL of 1.5 µM in 100 mM Hepes 20 mM MgCl2 pH 7 (protein final concentration 0.75 µM) with Sypro Orange 10X and 12.5 µl of the different compound solutions were dispensed into 96-well PCR-plates. The intensity of SYPRO Orange fluorescence after a systematic increase of temperature was monitored in the Roche LightCycler® 480 II device (Roche Diagnostics).
The capacity to stabilize α-L-iduronidase is denoted as follows: • ΔTm GALC > 1 is shown as A; • ΔTm GALC between 0.5 and 1 is shown as B; • ΔTm GALC between 0.1 and 0.5 is shown as C; and • ΔTm GALC less than 0.1 is shown as D.

Structure (SMILES) | DSF Activity range
CCN(CC(=O)Nc1cccc2c1N=S=N2)Cc1nc2ccccc2c(=O)[nH]1 [Example 25, N-(benzo[c][1,2,5]thiadiazol-4-yl)-2-(ethyl((4-oxo-3,4-dihydroquinazolin-2-yl)methyl)amino)acetamide] | B (ΔTm GALC between 0.5 and 1 is shown as B)
CN(CC(=O)Nc1cccc(F)c1)Cc1nc2c(cnn2C)c(=O)[nH]1 [Example 32, N-(3-fluorophenyl)-2-(methyl((1-methyl-4-oxo-4,5-dihydro-1H-pyrazolo[3,4-d]pyrimidin-6-yl)methyl)amino)acetamide] | D (ΔTm GALC less than 0.1 is shown as D)
COCCNC(=O)CN(C)Cc1nc2c(cnn2C)c(=O)[nH]1 [Example 34, N-(2-methoxyethyl)-2-(methyl((1-methyl-4-oxo-4,5-dihydro-1H-pyrazolo[3,4-d]pyrimidin-6-yl)methyl)amino)acetamide] | D (ΔTm GALC less than 0.1 is shown as D)
CCN(C(=O)CN(C)Cc1nc2ccccc2c(=O)[nH]1)c1cccc2ccccc12 [Example 28, N-ethyl-2-(methyl((4-oxo-3,4-dihydroquinazolin-2-yl)methyl)amino)-N-(naphthalen-1-yl)acetamide] | B (ΔTm GALC between 0.5 and 1 is shown as B)
CN(CC(=O)N(C)C1CCCCC1)Cc1nc2c(cnn2C)c(=O)[nH]1 [Example 37, N-cyclohexyl-N-methyl-2-(methyl((1-methyl-4-oxo-4,5-dihydro-1H-pyrazolo[3,4-d]pyrimidin-6-yl)methyl)amino)acetamide] | B (ΔTm GALC between 0.5 and 1 is shown as B)
CN(CC(=O)Nc1ccccc1)Cc1nc2c(cnn2C)c(=O)[nH]1 [Example 33, 2-(methyl((1-methyl-4-oxo-4,5-dihydro-1H-pyrazolo[3,4-d]pyrimidin-6-yl)methyl)amino)-N-phenylacetamide] | C (ΔTm GALC between 0.1 and 0.5 is shown as C)

same assay, conditions: synthetized Examples 1-7; ΔTm class

Structure (SMILES) | DSF Activity range
COc1cccc(-n2ncc3c(O)nc(CN(C)CC(=O)N(C)c4ccccc4Cl)nc32)c1 [Example 6, N-(2-chlorophenyl)-2-(((4-hydroxy-1-(3-methoxyphenyl)-1H-pyrazolo[3,4-d]pyrimidin-6-yl)methyl)(methyl)amino)-N-methylacetamide] | B (ΔTm GALC between 0.5 and 1 is shown as B)

same assay, conditions: synthetized Examples 38-94; ΔTm class

Structure (SMILES) | DSF Activity range
Cc1ccc2c(=O)[nH]c(CN(C)CC(=O)N3CCc4ccccc43)nc2c1 [Example 86] | D (ΔTm GALC less than 0.1 is shown as D)
Cc1csc2c(=O)[nH]c(CN(C)CC(=O)N(C)c3cccc(F)c3)nc12 [Example 50] | B (ΔTm GALC between 0.5 and 1 is shown as B)
Cc1cc2nc(CN(C)CC(=O)N(C)c3cccc(F)c3)[nH]c(=O)c2s1 [Example 51] | C (ΔTm GALC between 0.1 and 0.5 is shown as C)
CN(CC(=O)N1CCc2ccccc21)Cc1nc2c(cnn2C)c(=O)[nH]1 [Example 91] | B (ΔTm GALC between 0.5 and 1 is shown as B)
CCN(CC(=O)N(C)c1ccccc1Cl)Cc1nc2cc(C)sc2c(=O)[nH]1 [Example 46] | B (ΔTm GALC between 0.5 and 1 is shown as B)
CCCN(CC(=O)N(C)c1ccccc1Cl)Cc1nc2c(C)csc2c(=O)[nH]1 [Example 44] | B (ΔTm GALC between 0.5 and 1 is shown as B)
CN(CC(=O)N1Cc2ccccc2C1)Cc1nc2c(cnn2C)c(=O)[nH]1 [Example 90] | C (ΔTm GALC between 0.1 and 0.5 is shown as C)
Cc1cc2nc(CN(CC(=O)N(C)c3ccccc3Cl)C3CC3)[nH]c(=O)c2s1 [Example 47] | D (ΔTm GALC less than 0.1 is shown as D)
CCCN(CC(=O)N(C)c1ccccc1Cl)Cc1nc2ccc(F)cc2c(=O)[nH]1 [Example 62] | B (ΔTm GALC between 0.5 and 1 is shown as B)
CN(C(=O)CN(Cc1nc2ccc(F)cc2c(=O)[nH]1)C1CC1)c1ccccc1Cl [Example 61] | D (ΔTm GALC less than 0.1 is shown as D)
Cc1cc2nc(CN(C)CC(=O)N3Cc4ccccc4C3)[nH]c(=O)c2s1 [Example 53] | B (ΔTm GALC between 0.5 and 1 is shown as B)
